Reference: US20200369629A1, “BENZAMIDE COMPOUNDS AND THEIR USE AS HERBICIDES” (BASF SE, priority 2017, published 2020)

Tests used:
Type in all cases: in vivo
AVEFA (Avena fatua) = assay: Greenhouse post-emergence test, test series 1, AVEFA; settings: application rate 62.5 g/ha, scale 0 to 100 (100 = complete destruction, 0 = no damage)
Excerpt: (§1) The seeds of the test plants were sown separately for each species. For the pre-emergence treatment, the active ingredients, which had been suspended or emulsified in water, were applied directly after sowing by means of finely distributing nozzles. The containers were irrigated gently to promote germination and growth and subsequently covered with transparent plastic hoods until the plants had rooted. This cover caused uniform germination of the test plants, unless this had been impaired by the active ingredients. For the post-emergence treatment, the test plants were first grown to a height of 3 to 15 cm, depending on the plant habit, and only then treated with the active ingredients which had been suspended or emulsified in water. For this purpose, the test plants were either sown directly and grown in the same containers, or they were first grown separately as seedlings and transplanted into the test containers a few days prior to treatment. Depending on the species, the plants were kept at 10-25° C. or 20-25° C., respectively. The test period extended over 2 to 4 weeks. During this time, the plants were tended, and their response to the individual treatments was evaluated. Evaluation was carried out using a scale from 0 to 100. 100 means no emergence of the plants, or complete destruction of at least the aerial moieties, and 0 means no damage, or normal course of growth. A good herbicidal activity is given at values of at least 70 and a very good herbicidal activity is given at values of at least 85. Test Series 1: At an application rate of 62.5 g/ha the following compounds were tested in post-emergence tests against: AVEFA (Avena fatua)

[1] = test system: ALOMY (Alopecurus myosuroiedes); assay: Greenhouse pre-emergence test, test series 2, ALOMY; settings: application rate 125 g/ha, scale 0 to 100 (100 = no emergence, 0 = no damage)
Excerpt: as §1, with “Series 2:” for “Series 1:”, “of 125” for “of 62.5”, “in pre-emergence” for “in post-emergence”, “tests against ALOMY (Alopecurus myosuroiedes)” for “tests against: AVEFA (Avena fatua)”

[2] = test system: CHEAL (Chenopodium album); assay: Greenhouse post-emergence test, test series 1, CHEAL; settings: application rate 62.5 g/ha, scale 0 to 100 (100 = complete destruction, 0 = no damage)
Excerpt: as §1, with “CHEAL (Chenopodium album)” for “AVEFA (Avena fatua)”

[3] = test system: AMARE (Amaranthus retroflexus); assay: Greenhouse post-emergence test, test series 1, AMARE; settings: application rate 62.5 g/ha, scale 0 to 100 (100 = complete destruction, 0 = no damage)
Excerpt: as §1, with “AMARE (Amaranthus retroflexus)” for “AVEFA (Avena fatua)”

Cc1c(NC(=O)N(C)CC(F)(F)F)c(Br)cc(F)c1C(=O)Nc1nnnn1C [Example 1, 4-bromo-6-fluoro-2-methyl-N-(1-methyltetrazol-5-yl)-3-[[methyl(2,2,2-trifluoroethyl)carbamoyl]amino]benzamide]
> 85%: pest or weed control at 62.5 g/ha (AVEFA (Avena fatua)) | pest or weed control at 125 g/ha [1] | pest or weed control at 62.5 g/ha [2] | pest or weed control at 62.5 g/ha [3]

CCN(CC(F)(F)F)C(=O)Nc1c(Br)cc(F)c(C(=O)Nc2nnnn2C)c1C [Example 2, 4-bromo-6-fluoro-2-methyl-N-(1-methyltetrazol-5-yl)-3-[[ethyl(2,2,2-trifluoroethyl)carbamoyl]amino]benzamide]
> 85%: pest or weed control at 62.5 g/ha (AVEFA (Avena fatua)) | pest or weed control at 125 g/ha [1] | pest or weed control at 62.5 g/ha [2] | pest or weed control at 62.5 g/ha [3]

Cc1c(NC(=O)N(CC(F)(F)F)CC(F)(F)F)c(Br)cc(F)c1C(=O)Nc1nnnn1C [Example 3]
> 85%: pest or weed control at 62.5 g/ha (AVEFA (Avena fatua)) | pest or weed control at 125 g/ha [1] | pest or weed control at 62.5 g/ha [2] | pest or weed control at 62.5 g/ha [3]

Cc1c(NC(=O)N(CC(F)(F)F)C2CC2)c(Br)cc(F)c1C(=O)Nc1nnnn1C [Example 6]
> 85%: pest or weed control at 62.5 g/ha (AVEFA (Avena fatua)) | pest or weed control at 125 g/ha [1] | pest or weed control at 62.5 g/ha [2] | pest or weed control at 62.5 g/ha [3]

Cn1nnnc1NC(=O)c1c(F)cc(Cl)c(NC(=O)N(CC(F)(F)F)C2CC2)c1Cl [Example 7]
> 85%: pest or weed control at 62.5 g/ha (AVEFA (Avena fatua)) | pest or weed control at 125 g/ha [1] | pest or weed control at 62.5 g/ha [2] | pest or weed control at 62.5 g/ha [3]

CCN(CC(F)(F)F)C(=O)Nc1c(Cl)cc(F)c(C(=O)Nc2nnnn2C)c1Cl [Example 8]
> 85%: pest or weed control at 62.5 g/ha (AVEFA (Avena fatua)) | pest or weed control at 125 g/ha [1] | pest or weed control at 62.5 g/ha [2] | pest or weed control at 62.5 g/ha [3]

CN(CC(F)(F)F)C(=O)Nc1c(Cl)cc(F)c(C(=O)Nc2nnnn2C)c1Cl [Example 9, 2,4-dichloro-6-fluoro-N-(1-methyltetrazol-5-yl)-3-[[methyl(2,2,2-trifluoroethyl)carbamoyl]amino]benzamide]
> 85%: pest or weed control at 62.5 g/ha (AVEFA (Avena fatua)) | pest or weed control at 125 g/ha [1] | pest or weed control at 62.5 g/ha [2] | pest or weed control at 62.5 g/ha [3]

CN(CC(F)(F)F)C(=O)Nc1c(C(F)(F)F)cc(F)c(C(=O)Nc2nnnn2C)c1Cl [Example 10]
> 85%: pest or weed control at 62.5 g/ha (AVEFA (Avena fatua)) | pest or weed control at 125 g/ha [1] | pest or weed control at 62.5 g/ha [2] | pest or weed control at 62.5 g/ha [3]

Cc1c(NC(=O)N(C)CC(F)(F)F)c(Cl)cc(F)c1C(=O)Nc1nnnn1C [Example 12]
> 85%: pest or weed control at 62.5 g/ha (AVEFA (Avena fatua)) | pest or weed control at 125 g/ha [1] | pest or weed control at 62.5 g/ha [2] | pest or weed control at 62.5 g/ha [3]

Cc1c(NC(=O)N(CC(F)(F)F)C(C)C)c(Cl)cc(F)c1C(=O)Nc1nnnn1C [Example 13]
> 85%: pest or weed control at 62.5 g/ha (AVEFA (Avena fatua)) | pest or weed control at 125 g/ha [1] | pest or weed control at 62.5 g/ha [2] | pest or weed control at 62.5 g/ha [3]

CC(C)N(CC(F)(F)F)C(=O)Nc1c(C(F)(F)F)cc(F)c(C(=O)Nc2nnnn2C)c1Cl [Example 14]
> 85%: pest or weed control at 62.5 g/ha (AVEFA (Avena fatua)) | pest or weed control at 125 g/ha [1] | pest or weed control at 62.5 g/ha [2] | pest or weed control at 62.5 g/ha [3]

CCN(CC(F)(F)F)C(=O)Nc1c(Cl)cc(F)c(C(=O)Nc2nnnn2C)c1C [Example 18]
> 85%: pest or weed control at 62.5 g/ha (AVEFA (Avena fatua)) | pest or weed control at 125 g/ha [1] | pest or weed control at 62.5 g/ha [2] | pest or weed control at 62.5 g/ha [3]

Cc1c(NC(=O)N(CC(F)(F)F)CC(F)(F)F)c(Cl)cc(F)c1C(=O)Nc1nnnn1C [Example 19]
> 85%: pest or weed control at 62.5 g/ha (AVEFA (Avena fatua)) | pest or weed control at 125 g/ha [1] | pest or weed control at 62.5 g/ha [2] | pest or weed control at 62.5 g/ha [3]

CC(C)N(CC(F)(F)F)C(=O)Nc1c(Cl)cc(F)c(C(=O)Nc2nnnn2C)c1Cl [Example 20]
> 85%: pest or weed control at 62.5 g/ha (AVEFA (Avena fatua)) | pest or weed control at 125 g/ha [1] | pest or weed control at 62.5 g/ha [2] | pest or weed control at 62.5 g/ha [3]

Cc1c(NC(=O)N(CC(F)(F)F)C2CC2)c(Cl)cc(F)c1C(=O)Nc1nnnn1C [Example 21]
> 85%: pest or weed control at 62.5 g/ha (AVEFA (Avena fatua)) | pest or weed control at 125 g/ha [1] | pest or weed control at 62.5 g/ha [2] | pest or weed control at 62.5 g/ha [3]

Cn1nnnc1NC(=O)c1c(F)cc(C(F)(F)F)c(NC(=O)N(CC(F)(F)F)CC(F)(F)F)c1Cl [Example 22]
> 85%: pest or weed control at 62.5 g/ha (AVEFA (Avena fatua)) | pest or weed control at 125 g/ha [1] | pest or weed control at 62.5 g/ha [2] | pest or weed control at 62.5 g/ha [3]
